Legend:
nuclear cataract = test: Rat sodium selenite (senile/nuclear) cataract model, eye drops, lens opacity phase by slit lamp; type: in vivo, Wistar rats; details: 10 suffering eyes per group, about 20 μL three times a day, 10 weeks
Method: (§1) Rat model of cataract was made: Wistar rats 12 days after birth were selected, male or female, modeled with sodium selenite (senile cataract), each rat was injected subcutaneously in the back neck according to 20 umol/kg body weight. Acupuncture was used to model adult rats (traumatic cataract).
(§2) The opacity of the lens was observed using a slit lamp, and the lens opacity is generally classified into phase 0-V.
(§3) phase 0—Lens are transparent;
(§4) phase I—The cortex around the lens is scattered in small vacuoles;
(§5) phase II—The cortex around the lens is in ring-shaped dense medium vacuoles;
(§6) phase III—Other parts of cortex are in flaky turbidity;
(§7) phase IV—Lens nucleus and perinuclear cortex are turbid;
(§8) phase V—The lens is completely turbid.
(§9) After 3 days of modeling, econazole eye drops were administered three times a day including morning, noon, and evening, at intervals of at least 5 hours. Every group was made up of 10 cases of cataract suffering eyes involved in the test. The mode of administration was directly dropping to the eye to ensure that the drug was completely dripped into the eye. Each case of suffering eye receiving treatment was administrated one drop at a time with an amount of about 20 μL, and was continuously administrated for 10 weeks. All cataract suffering eyes in different treatment groups were observed and judged for signs of symptom ease or symptom relief.

traumatic cataract = test: Rat acupuncture (traumatic) cataract model, eye drops, lens opacity phase by slit lamp; type: in vivo, rats; details: 10 suffering eyes per group, about 20 μL three times a day, 10 weeks
Method: as §1, §2, §3, §4, §5, §6, §7, §8, §9

[1] = Tolerance of eye drops in cataract rats during treatment; type: in vivo, rat; details: eye drops three times a day, 10 weeks
Method: as §9

## Clc1ccc(COC(Cn2ccnc2)c2ccc(Cl)cc2Cl)cc1 (stereo not shown) [econazole, Econazole]
Nuclear cataract
  number of eyes in phase 0: 6
  number of eyes in phase I: 0
  number of eyes in phase II: 0
  number of eyes in phase III: 0
  number of eyes in phase IV: 4
  number of eyes in phase V: 0
Traumatic cataract
  number of eyes in phase 0: 4
  number of eyes in phase I: 5
  number of eyes in phase II: 1
  number of eyes in phase III: 0
  number of eyes in phase IV: 0
  number of eyes in phase V: 0
[1]
  discomfort or ocular allergic reaction throughout the treatment: No rat has discomfort or ocular allergic reaction
